Several values for one entry are separate records, joined by “and”; a condition that tells them apart may be missing. Equal entries are not always repeated.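 Tested at 5 concentrations; 48 h exposure; 96-well plates; endpoints linearly interpolated, else capped at highest concentration. GI50 = concentration required for 50% inhibition of growth. TGI marks complete inhibition of growth.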
How the values were obtained:
Assay in all cases: NCI tumour cell line growth inhibition, 48 h
SF-268 CNS = tested on: SF-268 CNS
MCF7 breast = tested on: MCF7 breast
CAKI-1 renal = tested on: CAKI-1 renal
NCI/ADR-RES ovarian = tested on: NCI/ADR-RES ovarian
MDA-MB-435 = tested on: MDA-MB-435
UACC-62 melanoma = tested on: UACC-62 melanoma
HS 578T breast = tested on: HS 578T breast
NCI-H460 lung = tested on: NCI-H460 lung
SF-539 CNS = tested on: SF-539 CNS
RXF 393 renal = tested on: RXF 393 renal

| Structure (SMILES) | GI50 (SF-268 CNS) [µM] | TGI (SF-268 CNS) [µM] | GI50 (MCF7 breast) | TGI (MCF7 breast) | GI50 (CAKI-1 renal) [nM] | TGI (CAKI-1 renal) [µM] | GI50 (NCI/ADR-RES ovarian) | TGI (NCI/ADR-RES ovarian) | GI50 (MDA-MB-435) [µM] | TGI (MDA-MB-435) [µM] | GI50 (UACC-62 melanoma) [µM] | TGI (UACC-62 melanoma) [µM] | GI50 (HS 578T breast) | TGI (HS 578T breast) [µM] | GI50 (NCI-H460 lung) | TGI (NCI-H460 lung) | GI50 (SF-539 CNS) | TGI (SF-539 CNS) | TGI (RXF 393 renal) [µM] | GI50 (RXF 393 renal) [µM] |
| --- | --- | --- | --- | --- | --- | --- | --- | --- | --- | --- | --- | --- | --- | --- | --- | --- | --- | --- | --- | --- |
| CN(C)CCCN1c2nc3ccccc3cc2Sc2cc3ccccc3nc21 | 1.59 | 3 | 859 nM | 2.18 µM | 1460 | 3.01 | 1.88 µM | 5.39 µM | 1.51 | 2.96 | 1.46 | 2.8 | 1.37 µM | 2.91 | 1600 nM | 3.13 µM | 1.61 µM | 2.97 µM |  |  |
| COc1ccc(C(N)=O)cc1N=NN(C)C |  | > 100 |  |  |  | > 100 |  |  |  |  |  | > 100 |  |  |  | > 100 µM |  | > 100 µM |  |  |
| COC1OC(CO)C(O)C(O)C1Br (stereo not given) |  | > 100 |  |  |  | > 100 |  |  |  |  |  | > 100 |  |  |  | > 100 µM |  | > 100 µM | > 100 |  |
| Cc1c(C(=O)NCCO)[n+](=O)c2cc(Cl)ccc2n1[O-] |  | > 100 |  |  |  |  |  |  |  |  |  | > 100 |  |  |  | > 100 µM |  | > 100 µM | > 100 |  |
| CC(=O)OCCOCNC(=S)N/N=C(\C)c1cnc2ccccc2n1 |  | > 100 |  |  |  |  |  |  |  |  |  | 39.7 |  |  |  | > 100 µM |  | > 100 µM | > 100 |  |
| C=C=C(CC)C(C(=O)OC)N(CC)CC (stereo not given) |  | > 100 |  |  |  | > 100 |  |  |  |  |  | > 100 |  |  |  | > 100 µM |  | > 100 µM | > 100 |  |
| CN(C)C(N)=NC#N |  | > 100 |  |  |  | > 100 |  |  |  |  |  | > 100 |  |  |  | > 100 µM |  | > 100 µM | 74.8 |  |
| CCOC(=O)C(CO)c1nc2c([nH]c1=O)c(=O)n(C)c(=O)n2C (stereo not given) |  | > 100 |  | > 100 µM |  | > 100 |  | > 100 µM |  | > 100 |  | > 100 |  | > 100 |  | > 100 µM |  | > 100 µM |  |  |
| CCC(=O)C(C)C1=Nc2nnc(CCCCCCCc3nnc4n3C(=O)C(C(C)C(=O)CC)=N4)n2C1=O (stereo not given) |  | > 100 |  |  |  | > 100 |  |  |  |  |  | > 100 |  |  |  | > 100 µM |  | > 100 µM | > 100 |  |
| C[C@]1(CO)[C@H]2CC[C@@]34C=C[C@@](CO)(CC[C@H]3[C@]2(C)CC[C@H]1O)C4 |  | > 100 |  | > 100 µM |  | > 100 |  | > 100 µM |  | > 100 |  | > 100 |  | > 100 |  |  |  | > 100 µM | > 100 |  |
| CCOC(=O)C(Cc1c[nH]c2ccc(N(CCCl)CCCl)cc12)(NC(C)=O)C(=O)OCC | 5.21 | 46.5 | 2420 nM and 3110 nM | 26.8 µM and 96.6 µM |  |  | 14.6 µM and 11.7 µM | 47.3 µM and 64.3 µM | 16.9 | 33.1 | 12.1 | 26 | 69.5 µM and 20.9 µM | 68.3 | 1820 nM and 765 nM | 17.7 µM and 132 µM | 3.18 µM and 6.88 µM | 12.6 µM and 30.3 µM |  |  |
| CC(=O)O[C@H]1CC[C@@]2(C)C(=CC[C@H]3C4=CC=C(C(C)=O)[C@@]4(C)CCC32)C1 (stereo not given in full) |  | > 100 |  |  |  | > 100 |  |  |  |  |  | 46.8 |  |  |  | > 100 µM |  | > 100 µM | 63.7 |  |
| CC1(C)OC(=O)C=C([O-])O1.CC1(C)OC(=O)C=C([O-])O1.O=S(=O)([O-])c1ccc([O-])c2ncccc12.O=S(=O)([O-])c1ccc([O-])c2ncccc12.[Ti+4] | 52 | > 100 |  |  | > 100000 | > 100 |  |  |  |  | 79.9 | > 100 |  |  | 41800 nM | > 100 µM | 78.5 µM | > 100 µM | > 100 | > 100 |
| CC(=O)OC1CC2C(C)(C)C(=O)C=C[C@]2(C)C2CCC3(C)C(c4ccoc4)C(=O)[C@H]4O[C@]43[C@]12C (stereo not given in full) |  | > 100 |  |  |  | 75.1 |  |  |  |  |  | 64.2 |  |  |  | 36.8 µM |  | 39.9 µM | 47.5 |  |

— PubChem BioAssay (NCI)
